Experimental data taken from US20040044281A1, “Systems and methods for assessing blood flow in a target tissue” (priority 2002, published 2004).
“And” between values parts separate entries of the source, which are not always exact repeats. Identical values can stand only once.

Tested on: tumor blood flow
Assay: DCE-MRI tumor blood flow estimation pre- and post-treatment in patients of a phase I trial
Format: in vivo, human
Parameters: Change tgp / Change Gpeak / Change tgp10 / Change E: unit not given here
Details: individual patients; for Post-treatment E (enhancement) / Post-treatment Gpeak (gradient peak) / Post-treatment tgp10 (time till gradient drops to 10% of Gpeak) / Post-treatment tgp (time to gradient peak): DCE-MRI 4-6 hrs after infusion, tumor ROI; for Change E / Change Gpeak / Change tgp / Change tgp10: post minus pre-treatment
Experimental: The above equation (4) for Srel can be solved for the concentration variable C if the baseline set of MR image data set is set equal to Sbaseline, and the post MR sets of image data is set equal to the variable Spostcontrast. Concentration C can be calculated on a pixel by pixel or voxel by voxel basis and then averaged resulting in a data set of Concentration C as a function of time. A shown in Block 50 of FIG. 1, the mathematical derivative of Concentration C is determined, preferably by fitting a curve through the concentration data set and then taking the derivative of the curve equation to acquire a gradient curve. The gradient curve represents the rate of change of the tissue concentration of the contrast agent in the ROI. As shown in block 60 of FIG. 1, the maximum value of the rate of change of concentration per time (dC/dt) or Gpeak, is then determined. Thus, Gpeak, which is the magnitude of the first derivative of the concentration curve, can be employed as a flow analog that maintains a high correlation with flow with minimal sensitivity to variations in volume Ve. MRI acquisition techniques, coupled with image analysis techniques (e.g., intensity, rate of change of intensity), facilitate determining the efficacy of a treatment.
With A=40 mMol·sec (the area under curve without recirculation), B=0.5 mMol (the equilibrium concentration), and tp was the time to peak. […] In each case flow F was varied from 0.001 to 0.03 ml/sec/g. Five parameters were calculated from each curve as shown for example purposes in FIG. 5. Magnitude of the first derivative peak (Gpeak), time from bolus arrival to first derivative peak (tgp,) time for gradient to drop to 10% of peak value (tgp10,), the concentration at tgp10 (denoted CE), and initial area under the CT curve from bolus arrival to 60 sec afterwards (IAUC) (Evelhoch, 1999.
DCE-MRI. Six patients were studied using a 1.5T scanner (Siemens Magnetom Vision). Perfusion studies were obtained with a single-slice Fast Low Angle Shot (FLASH) sequence (TR=10, TE=4, FA=30°, slice thickness=10 mm, matrix=128×256, FOV=16×25 cm-35×35 cm) repeated 128 times, once every 2.6 seconds. The first 10 images were obtained without contrast enhancement, after which an approximately 10 second bolus of Gadolinium-DTPA contrast agent (Magnevist, Berlex Laboratories) was administered intravenously. […] DCE-MRI was performed twice on each patient; once to obtain a pre-treatment baseline, and once 4-6 hrs after infusion of combretestatin. The slice position and orientation between days within each patient was carefully matched to obtain data from the same region of interest (ROI) in the tumor. Image processing was performed off-line using a custom software package that permitted a trained rater to view all 128 images in a study and to interactively identify the tumor ROI.

SMILES: COc1ccc(/C=C\c2cc(OC)c(OC)c(OC)c2)cc1OP(=O)(O)O [CA4P, disodium combretastatin-A-4-3-O-phosphate]
- Post-treatment E (enhancement) (60 mg/m^2 (10 min)): 2.01 and 1.87
- Post-treatment Gpeak (gradient peak) (60 mg/m^2 (10 min)): 6.18 and 5.71
- Post-treatment tgp10 (time till gradient drops to 10% of Gpeak) (60 mg/m^2 (10 min)): 25.30 and 34.50
- Post-treatment tgp (time to gradient peak) (60 mg/m^2 (10 min)): 11.50 and 6.90
- Post-treatment E (enhancement) (60 mg/m^2 (1 hr)): 1.72 and 1.76 and 1.80 and 1.28 and 1.30
- Post-treatment Gpeak (gradient peak) (60 mg/m^2 (1 hr)): 4.93 and 3.57 and 3.47 and 2.19 and 1.48
- Post-treatment tgp10 (time till gradient drops to 10% of Gpeak) (60 mg/m^2 (1 hr)): 36.60 and 44.50 (2×) and 20.90 and 52.60
- Post-treatment tgp (time to gradient peak) (60 mg/m^2 (1 hr)): 7.86 (2×) and 15.70 and 13.10 and 11.70
- Change E (60 mg/m^2 (10 min)): −0.41 and 0.05
- Change Gpeak (60 mg/m^2 (10 min)): −1.12 and 0.92
- Change tgp (60 mg/m^2 (10 min)): 0.00
- Change tgp10 (60 mg/m^2 (10 min)): −13.80 and −4.60
- Change E (60 mg/m^2 (1 hr)): −0.27 and −0.06 and −0.13 and −0.22 and −0.20
- Change Gpeak (60 mg/m^2 (1 hr)): −3.76 and −1.05 and −1.53 and −1.44 and −1.75
- Change tgp (60 mg/m^2 (1 hr)): 0.00 and 2.60 and 5.24 and 2.62 and −4.00
- Change tgp10 (60 mg/m^2 (1 hr)): 18.30 and 5.20 and 10.50 and −15.70 and 21.20
